According to PubChem BioAssay (NCI):
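Protocol summary: plate cells (96-well), add compound at 5 concentrations, incubate 48 h, interpolate endpoints linearly. TGI: total growth inhibition.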 Where a SMILES comes first, the peptide text is derived from it. [ ]: non-standard residue; d: D form. The star is where a group is joined. ξ: configuration not given here. ξF = NC(Cc1ccccc1)C(=O)O; Cbz = O=C(OCc1ccccc1)*; Aib = CC(C)(N)C(=O)O; NHNH2 = NN*

Columns and labels:
Test in all cases: growth of human tumour cells (NCI), 48 h
[1] = tested on: 786-0 renal
[2] = tested on: A498 renal
[3] = tested on: A549 NSCLC
[4] = tested on: ACHN renal
[5] = tested on: CCRF-CEM leukemia
[6] = tested on: EKVX NSCLC
[7] = tested on: HCC-2998 colon
[8] = tested on: HL-60(TB) leukemia
[9] = tested on: HOP-62 NSCLC
[10] = tested on: HOP-92 NSCLC
[11] = tested on: M14 melanoma
[12] = tested on: MOLT-4 leukemia
[13] = tested on: OVCAR-8 ovarian
[14] = tested on: SF-268 CNS
[15] = tested on: SK-MEL-5 melanoma
[16] = tested on: SK-OV-3 ovarian
[17] = tested on: T-47D breast
[18] = tested on: UACC-257 melanoma
[19] = tested on: UACC-62 melanoma
[20] = tested on: BT-549 breast

Structure (SMILES)	TGI [1]	TGI [2]	TGI [3]	TGI [4]	TGI [5]	TGI [6]	TGI [7]	TGI [8]	TGI [9]	TGI [10]	TGI [11]	TGI [12]	TGI [13]	TGI [14]	TGI [15]	TGI [16]	TGI [17]	TGI [18]	TGI [19]	TGI [20]
COc1ccccc1NC(=S)NN=C(C)c1cccc(C(C)=NNC(=S)Nc2ccccc2OC)n1	37.7 µM	93 µM	> 100 µM	64.3 µM	> 100 µM	> 100 µM	> 100 µM	99.5 µM	> 100 µM	97.7 µM	25.8 µM	74.5 µM	> 100 µM	> 100 µM	32.7 µM	> 100 µM	> 100 µM	93.9 µM	> 100 µM	
COC(=O)C1CCc2c1c(=O)n1c([nH]c3ccccc31)c2C#N (stereo unspecified)	> 100 µM	> 100 µM	> 100 µM	> 100 µM	> 100 µM	> 100 µM	> 100 µM	> 100 µM	> 100 µM	> 100 µM	> 100 µM		> 100 µM	> 100 µM	> 100 µM	> 100 µM		> 100 µM	> 100 µM	
CC(=O)O[C@H]1C(=O)[C@@]2(C)[C@H]([C@H](OC(=O)c3cccc([N+](=O)[O-])c3)[C@]3(O)C[C@H](OC(=O)[C@H](O)[C@@H](NC(=O)c4ccccc4)c4ccccc4)C(C)=C1C3(C)C)[C@]1(OC(C)=O)CO[C@@H]1C[C@@H]2O	> 25 µM	18.5 µM	> 25 µM	> 25 µM		> 25 µM	> 25 µM	< 0.0025 µM	> 25 µM	> 25 µM	8.52 µM	> 20.3 µM	> 25 µM	> 25 µM	> 9.01 µM	> 25 µM		> 25 µM	> 25 µM	> 25 µM
CC(C)OP(=O)(OC(C)C)/C(Cl)=N/Nc1ccc([N+](=O)[O-])cc1	> 100 µM	> 100 µM	> 100 µM	> 100 µM	> 100 µM	> 100 µM	> 100 µM	> 100 µM	> 100 µM	> 100 µM	> 100 µM	> 100 µM	> 100 µM	> 100 µM	> 100 µM			> 100 µM	> 100 µM	
Cc1ccc(S(=O)(=O)NC(=O)NCCc2cnc[nH]2)cc1	> 100 µM	> 100 µM	> 100 µM	> 100 µM		> 100 µM	> 100 µM	> 100 µM	> 100 µM	> 100 µM	> 100 µM	> 100 µM	> 100 µM	> 100 µM	> 100 µM	> 100 µM			> 100 µM	
COC(=O)C1CCC(=O)N1CN(C(C)=O)c1ccccc1Cl (stereo unspecified)	> 100 µM	> 100 µM	> 100 µM	> 100 µM		> 100 µM	> 100 µM		> 100 µM	> 100 µM	> 100 µM	> 100 µM	> 100 µM	> 100 µM	> 100 µM	> 100 µM	> 100 µM	> 100 µM	> 100 µM	
CC(C)=CCC[C@]1(C)C=Cc2c(O)c3c(c(CC=C(C)C)c2O1)O[C@]12C(=C[C@@H]4CC1C(C)(C)O[C@@]2(C/C=C(/C)C(=O)O)C4=O)C3=O	2.4 µM	3.98 µM	3.71 µM	1.37 µM	1.45 µM	4.39 µM	2.81 µM	0.706 µM	3.11 µM	9.16 µM	3.19 µM	1.8 µM	4.19 µM	3.91 µM		8.54 µM		6.8 µM	4.57 µM	7.03 µM
COc1ccc(C2=C(Cl)c3cc(OC)c(OC)cc3C2OC)cc1OC (stereo unspecified)	> 100 µM	> 100 µM	> 100 µM	> 100 µM	> 100 µM	> 100 µM	> 100 µM	> 100 µM	> 100 µM	> 100 µM	> 100 µM	> 100 µM	> 100 µM	> 100 µM	> 100 µM			> 100 µM	> 100 µM	
O=C(c1ccccc1)c1c(CC(O)c2ccccn2)n(C(=O)c2ccccc2)c2ccccc12 (stereo unspecified)	> 100 µM		> 100 µM	96.6 µM	80.5 µM		67.7 µM		38.2 µM	57.5 µM	38.1 µM	63.6 µM	95.8 µM	> 100 µM	27.3 µM			43.6 µM	32.5 µM	
CC(Nc1ncc2c(n1)-c1ccccc1OC2)C(=O)O (stereo unspecified)	> 100 µM		> 100 µM	> 100 µM	> 100 µM	> 100 µM		26.1 µM	> 100 µM	> 100 µM	> 100 µM	> 100 µM	> 100 µM	> 100 µM	> 100 µM	> 100 µM		> 100 µM	> 100 µM	
CCOC(=O)c1nc2ccc(C(F)(F)F)cc2nc1NCc1ccc(OC)cc1	> 100 µM	> 100 µM	> 100 µM	> 100 µM	> 100 µM	> 100 µM			> 100 µM	> 100 µM	> 100 µM	> 100 µM	> 100 µM	> 100 µM	> 100 µM	> 100 µM	> 100 µM	> 100 µM	> 100 µM	> 100 µM
N#Cc1cc(C#N)c(N)nc1N	> 100 µM	> 100 µM	> 100 µM	> 100 µM	> 100 µM	> 100 µM	> 100 µM	> 100 µM	> 100 µM	> 100 µM	> 100 µM	> 100 µM	> 100 µM		> 100 µM	> 100 µM		> 100 µM	> 100 µM	> 100 µM
CC(C)(NC(=O)OCc1ccccc1)C(=O)NC(Cc1ccccc1)C(=O)NN (stereo unspecified) (Cbz-[Aib]-[ξF]-NHNH2)	> 100 µM	> 100 µM	> 100 µM	> 100 µM	> 100 µM	> 100 µM			> 100 µM	> 100 µM	> 100 µM	> 100 µM	> 100 µM	> 100 µM	> 100 µM	> 100 µM	> 100 µM	> 100 µM	> 100 µM	> 100 µM
Nc1nc2c3nc(Nc4ccccc4)sc3nc(=S)n2c2sc(Nc3ccccc3)nc12	> 100 µM	> 100 µM	> 100 µM	> 100 µM		> 100 µM	> 100 µM	> 100 µM	> 100 µM	52.3 µM	> 100 µM		> 100 µM	56.5 µM	> 100 µM	> 100 µM		> 100 µM	> 100 µM	
CCCNC(=S)/N=C/c1c(O)cc(C)oc1=O	> 100 µM		> 100 µM	> 100 µM		> 100 µM	> 100 µM		> 100 µM	> 100 µM	> 100 µM	> 100 µM	> 100 µM		> 100 µM	> 100 µM	> 100 µM	> 100 µM	> 100 µM	> 100 µM
COP(=O)(OC)C(=O)N1N(c2ccc([N+](=O)[O-])cc2)C(=O)C(C)NC1(NNc1ccc([N+](=O)[O-])cc1)P(=O)(OC)OC (stereo unspecified)	> 100 µM	> 100 µM	> 100 µM	> 100 µM	> 100 µM	> 100 µM	> 100 µM	> 100 µM	> 100 µM	> 100 µM	> 100 µM	> 100 µM	> 100 µM	> 100 µM	> 100 µM			> 100 µM	> 100 µM	
CC(=O)Nc1ccc(NCC(=O)Nn2cnc3ccc(S(=O)(=O)Nc4ccc(NC(C)=O)cc4)cc3c2=O)cc1	> 100 µM		> 100 µM	> 100 µM	> 100 µM	> 100 µM	> 100 µM	> 100 µM	> 100 µM	> 100 µM	> 100 µM	> 100 µM	> 100 µM	> 100 µM		> 100 µM		> 100 µM	> 100 µM	> 100 µM
CCc1n[nH]c(=O)n1/N=C/c1ccccc1O	> 100 µM		> 100 µM	> 100 µM	> 100 µM	> 100 µM	> 100 µM		> 100 µM	> 100 µM	> 100 µM	> 100 µM	> 100 µM	> 100 µM	> 100 µM	> 100 µM		> 100 µM	> 100 µM	> 100 µM
S=c1[nH]nc(CNc2ccc(-c3n[nH]c(=S)n3-c3ccc(Cl)cc3)cc2)n1-c1ccc(Cl)cc1	70 µM	> 100 µM	> 100 µM	> 100 µM		> 100 µM	> 100 µM		36.6 µM	59.1 µM	68.1 µM	> 100 µM		> 100 µM	65 µM	> 100 µM		> 100 µM	78.8 µM	> 100 µM
CCN(CC)c1cccc2c1/C(=N/O)CCCC2	> 100 µM		> 100 µM	> 100 µM	> 100 µM	> 100 µM		> 100 µM	> 100 µM			> 100 µM	> 100 µM	> 100 µM	> 100 µM	> 100 µM		> 100 µM	> 100 µM	
N#Cc1nc(CCN2C(=O)c3ccccc3C2=O)oc1N	> 100 µM		> 100 µM	> 100 µM	> 100 µM	> 100 µM	> 100 µM		> 100 µM		> 100 µM	> 100 µM	> 100 µM	> 100 µM	> 100 µM	> 100 µM	> 100 µM	> 100 µM		> 100 µM
COC(=O)C(NC(=O)C(CC(=O)OC(C)(C)C)NC(=O)OC(C)(C)C)C(O)c1ccccc1 (stereo unspecified)	> 100 µM	> 100 µM	> 100 µM	> 100 µM	> 100 µM	> 100 µM			> 100 µM		> 100 µM	> 100 µM	> 100 µM	> 100 µM	> 100 µM	61.9 µM	> 100 µM	> 100 µM	70.8 µM	> 100 µM
CC(C)(O)/C=C\P(=O)(O)O	> 100 µM		> 100 µM	> 100 µM		> 100 µM	> 100 µM		> 100 µM	> 100 µM	> 100 µM		> 100 µM	> 100 µM	> 100 µM	> 100 µM	> 100 µM	> 100 µM	> 100 µM	
N#CC(C(=O)c1cccnc1Cl)c1nc2cc(C(F)(F)F)ccc2s1 (stereo unspecified)	> 100 µM	87 µM	> 100 µM	> 100 µM		> 100 µM			> 100 µM	54.4 µM	> 100 µM	> 100 µM	> 100 µM	> 100 µM	> 100 µM	> 100 µM	> 100 µM	> 100 µM		> 100 µM
CCN(CC)C(=O)Cc1c(C(=O)N(CC)CC)c(=O)nc2sccn12	> 100 µM	> 100 µM	> 100 µM	> 100 µM	> 100 µM	> 100 µM	> 100 µM	> 100 µM	> 100 µM	> 100 µM	> 100 µM	> 100 µM	> 100 µM	> 100 µM		> 100 µM		> 100 µM	> 100 µM	
C=CCn1c(-c2ccc([N+](=O)[O-])cc2)cs/c1=N\C(P(=O)(O)O)P(=O)(O)O	> 100 µM	> 100 µM	> 100 µM	> 100 µM	> 100 µM	> 100 µM	> 100 µM	90.6 µM	> 100 µM	> 100 µM	> 100 µM	> 100 µM	> 100 µM	> 100 µM	> 100 µM	> 100 µM		> 100 µM	> 100 µM	> 100 µM
